Measurements from patent publication US20210015098A1, “MOLECULES HAVING PESTICIDAL UTILITY, AND INTERMEDIATES, COMPOSITIONS, AND PROCESSES, RELATED THERETO” (DOW AGROSCIENCES LLC, priority 2018, published 2021).

Experiments:
Assay type in all cases: in vivo
[1] = tested on: Beet Armyworm (Spodoptera exigua, LAPHEG); experiment: Bioassays on Beet Armyworm (BAW), 128-well diet tray assay; details: for mortality at 50 µg/cm2: 168 h, 50 μg/cm^2 on artificial diet, second instar larvae, 25° C., five to seven days, read-out: BAW % Control (or Mortality) rating; for pest or weed control at 50 µg/cm2: Beet Armyworm, Table ABC Biological Results, read-out: BAW (rating)
Summary of the method: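 Test molecule was dissolved in 90:10 acetone-water and applied at 50 μg/cm^2 onto artificial diet in eight wells, then dried. Second instar larvae, one to five per well, were added, and trays were kept vented at 25° C. with a 14:10 photoperiod for five to seven days before mortality was recorded.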

[2] = tested on: Cabbage Looper (Trichoplusia ni, TRIPNI); experiment: Bioassays on Cabbage Looper (CL), 128-well diet tray assay; details: for mortality at 50 µg/cm2: 168 h, 50 μg/cm^2 on artificial diet, second instar larvae, 25° C., five to seven days, read-out: CL % Control (or Mortality) rating; for pest or weed control at 50 µg/cm2: Cabbage Looper, Table ABC Biological Results, read-out: CL (rating)
Summary of the method: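 Activity is mean percent mortality over eight wells of second-instar larvae exposed to diet treated at 50 μg/cm^2 for 5–7 days at 25° C.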

[3] = tested on: Yellow Fever Mosquito (Aedes aegypti, AEDSAE); details: for YFM % Control (or Mortality) rating: about 1 day-old larvae, 96-well plate, room temperature, 3 days; for YFM (rating): Yellow Fever Mosquito, Table ABC Biological Results
Description: Certain molecules disclosed in this document were tested against YFM using procedures described in the following paragraph. In the reporting of the results, the “GPA & YFM Rating Table” was used (See Table Section).
Master plates containing 400 μg of a molecule dissolved in 100 μL of dimethyl sulfoxide (DMSO) (equivalent to a 4000 ppm solution) are used. A master plate of assembled molecules contains 15 μL per well. To this plate, 135 μL of a 90:10 water/acetone mixture is added to each well. A robot (Biomek® NXP Laboratory Automation Workstation) is programmed to dispense 15 μL aspirations from the master plate into an empty 96-well shallow plate (“daughter” plate). There are 6 reps (“daughter” plates) created per master. The created “daughter” plates are then immediately infested with YFM larvae.
The day before plates are to be treated, mosquito eggs are placed in Millipore water containing liver powder to begin hatching (4 g into 400 mL). After the “daughter” plates are created using the robot, they are infested with 220 μL of the liver powder/larval mosquito mixture (about 1 day-old larvae). After plates are infested with mosquito larvae, a non-evaporative lid is used to cover the plate to reduce drying. Plates are held at room temperature for 3 days prior to grading. After 3 days, each well is observed and scored based on mortality. The results are indicated in the table entitled “Table ABC: Biological Results” (See Table Section).

[4] = tested on: Green Peach Aphid (Myzus persicae, MYZUPE); experiment: Bioassays on Green Peach Aphid (GPA), foliar spray on cabbage seedlings; details: Green Peach Aphid; Table ABC Biological Results
Description: Certain molecules disclosed in this document were tested against GPA using procedures described in the following example. In the reporting of the results, the “GPA & YFM Rating Table” was used (See Table Section).
Cabbage seedlings grown in 3-inch pots, with 2-3 small (3-5 cm) true leaves, were used as test substrate. The seedlings were infested with 20-50 GPA (wingless adult and nymph stages) one day prior to chemical application. Four pots with individual seedlings were used for each treatment. Test molecules (2 mg) were dissolved in 2 mL of acetone/methanol (1:1) solvent, forming stock solutions of 1000 ppm test molecule. The stock solutions were diluted 5× with 0.025% Tween 20 in water to obtain the solution at 200 ppm test molecule. A hand-held aspirator-type sprayer was used for spraying a solution to both sides of […] leaves until runoff. Reference plants (solvent check) were sprayed with the diluent only containing 20% by volume of acetone/methanol (1:1) solvent. Treated plants were held in a holding room for three days at approximately 25° C. and ambient relative humidity (RH) prior to grading. Evaluation was conducted by counting the number of live aphids per plant under a microscope. Percent control was measured using Abbott's correction formula (W. S. Abbott, “A Method of Computing the Effectiveness of an Insecticide” J. Econ. Entomol. 18 (1925), pp. 265-267) as follows. Corrected % Control=100*(X−Y)/X where X=No. of live aphids on solvent check plants and Y=No. of live aphids on treated plants. The results are indicated in the table entitled “Table ABC: Biological Results” (See Table Section).

For `Nc1c(F)ccc(NC(=O)c2cc(NC(=O)[C@H]3[C@H](c4ccc(F)c(C(F)(F)F)c4)C3(Cl)Cl)ccc2Cl)c1F` [DP5, N-(3-Amino-2,4-difluorophenyl)-2-chloro-5-((1R,3R)-2,2-dichloro-3-(4-fluoro-3-(trifluoromethyl)phenyl)cyclopropanecarboxamido)benzamide], the mortality at 50 µg/cm2 [1] was 50 to 100%, the mortality at 50 µg/cm2 [2] was 50 to 100% and the “YFM % Control (or Mortality) rating” value [3] was “A (80-100)”.
For `Nc1c(F)ccc(NC(=O)c2cc(NC(=O)[C@H]3[C@H](c4cc(F)cc(C(F)(F)F)c4)C3(Cl)Cl)ccc2Cl)c1F` [DP8, N-(3-Amino-2,4-difluorophenyl)-2-chloro-5-((1R,3R)-2,2-dichloro-3-(3-fluoro-5-(trifluoromethyl)phenyl)cyclopropane-1-carboxamido)benzamide], the mortality at 50 µg/cm2 [1] was 50 to 100%, the mortality at 50 µg/cm2 [2] was 50 to 100% and the “YFM % Control (or Mortality) rating” value [3] was “A (80-100)”.
`C=CCSCC(=O)Nc1c(F)ccc(NC(=O)c2cc(NC(=O)[C@H]3[C@H](c4ccc(F)c(C(F)(F)F)c4)C3(Cl)Cl)ccc2Cl)c1F` [F3, N-(3-(2-(Allylthio)acetamido)-2,4-difluorophenyl)-2-chloro-5-((1R,3R)-2,2-dichloro-3-(4-fluoro-3-(trifluoromethyl)phenyl)cyclopropane-1-carboxamido)benzamide] was tested, and the pest or weed control at 50 µg/cm2 [1] was 50 to 100%, the pest or weed control at 50 µg/cm2 [2] was 50 to 100% and the “GPA (rating)” value [4] was “B (More than 0-Less than 80)”.
With `O=C(CSCC(F)(F)F)Nc1c(F)ccc(NC(=O)c2cc(NC(=O)[C@H]3[C@H](c4ccc(F)c(C(F)(F)F)c4)C3(Cl)Cl)ccc2Cl)c1F` [F15, 2-chloro-5-((R,3R)-2,2-dichloro-3-(4-fluoro-3-(trifluoromethyl)phenyl)cyclopropane-1-carboxamido)-N-(2,4-difluoro-3-(2-((2,2,2-trifluoroethyl)thio)acetamido)phenyl)benzamide] the pest or weed control at 50 µg/cm2 [1] was 50 to 100%, the pest or weed control at 50 µg/cm2 [2] was 50 to 100% and the “YFM (rating)” value [3] was “A (80-100)”.
With `CC(SC(F)(F)F)C(=O)Nc1c(F)ccc(NC(=O)c2cc(NC(=O)[C@H]3[C@H](c4ccc(F)c(C(F)(F)F)c4)C3(Cl)Cl)ccc2Cl)c1F` (stereo partly drawn) [F16, 2-Chloro-5-((1R,3R)-2,2-dichloro-3-(4-fluoro-3-(trifluoromethyl)phenyl)cyclopropane-1-carboxamido)-N-(2,4-difluoro-3-(2-((trifluoromethyl)thio)propanamido)phenyl)benzamide] the pest or weed control at 50 µg/cm2 [1] was 50 to 100%, the pest or weed control at 50 µg/cm2 [2] was 50 to 100% and the “YFM (rating)” value [3] was “A (80-100)”.
In the case of `O=C(CSC(F)(F)F)Nc1c(F)ccc(NC(=O)c2cc(NC(=O)[C@H]3[C@H](c4ccc(F)c(C(F)(F)F)c4)C3(Cl)Cl)ccc2Cl)c1F` [F17, 2-Chloro-5-((1R,3R)-2,2-dichloro-3-(4-fluoro-3-(trifluoromethyl)phenyl)cyclopropane-1-carboxamido)-N-(2,4-difluoro-3-(2-((trifluoromethyl)thio)acetamido)phenyl)benzamide], the pest or weed control at 50 µg/cm2 [1] is reported as 50 to 100%, the pest or weed control at 50 µg/cm2 [2] is reported as 50 to 100% and the “YFM (rating)” value [3] is reported as “A (80-100)”.
For `CCSC(C)C(=O)Nc1c(F)ccc(NC(=O)c2cc(NC(=O)[C@H]3[C@H](c4ccc(F)c(C(F)(F)F)c4)C3(Cl)Cl)ccc2Cl)c1F` (stereo partly drawn) [F18, 2-Chloro-5-((1R,3R)-2,2-dichloro-3-(4-fluoro-3-(trifluoromethyl)phenyl)cyclopropane-1-carboxamido)-N-(3-(2-(ethylthio)propanamido)-2,4-difluorophenyl)benzamide], the pest or weed control at 50 µg/cm2 [1] was 50 to 100%, the pest or weed control at 50 µg/cm2 [2] was 50 to 100% and the “YFM (rating)” value [3] was “A (80-100)”.
In the case of `CCSCC(=O)Nc1c(F)ccc(NC(=O)c2cc(NC(=O)[C@H]3[C@H](c4ccc(F)c(C(F)(F)F)c4)C3(Cl)Cl)ccc2Cl)c1F` [F19, 2-Chloro-5-((1R,3R)-2,2-dichloro-3-(4-fluoro-3-(trifluoromethyl)phenyl)cyclopropane-1-carboxamido)-N-(3-(2-(ethylthio)acetamido)-2,4-difluorophenyl)benzamide], the pest or weed control at 50 µg/cm2 [1] is reported as 50 to 100%, the pest or weed control at 50 µg/cm2 [2] is reported as 50 to 100% and the “YFM (rating)” value [3] is reported as “A (80-100)”.
In the case of `O=C(CCSCCC(F)(F)F)Nc1c(F)ccc(NC(=O)c2cc(NC(=O)[C@H]3[C@H](c4ccc(F)c(C(F)(F)F)c4)C3(Cl)Cl)ccc2Cl)c1F` [F21, 2-Chloro-5-((1R,3R)-2,2-dichloro-3-(4-fluoro-3-(trifluoromethyl)phenyl)cyclopropane-1-carboxamido)-N-(2,4-difluoro-3-(3-((3,3,3-trifluoropropyl)thio)propanamido)phenyl)benzamide], the pest or weed control at 50 µg/cm2 [1] is reported as 50 to 100%, the pest or weed control at 50 µg/cm2 [2] is reported as 50 to 100% and the “YFM (rating)” value [3] is reported as “A (80-100)”.
In the case of `CCSCCC(=O)Nc1c(F)ccc(NC(=O)c2cc(NC(=O)[C@H]3[C@H](c4ccc(F)c(C(F)(F)F)c4)C3(Cl)Cl)ccc2Cl)c1F` [F23, 2-Chloro-5-((1R,3R)-2,2-dichloro-3-(4-fluoro-3-(trifluoromethyl)phenyl)cyclopropane-1-carboxamido)-N-(3-(3-(ethylthio)propanamido)-2,4-difluorophenyl)benzamide], the pest or weed control at 50 µg/cm2 [1] is reported as 50 to 100%, the pest or weed control at 50 µg/cm2 [2] is reported as 50 to 100% and the “YFM (rating)” value [3] is reported as “A (80-100)”.
In the case of `CSCCC(=O)Nc1c(F)ccc(NC(=O)c2cc(NC(=O)[C@H]3[C@H](c4ccc(F)c(C(F)(F)F)c4)C3(Cl)Cl)ccc2Cl)c1F` [F24, 2-Chloro-5-((1R,3R)-2,2-dichloro-3-(4-fluoro-3-(trifluoromethyl)phenyl)cyclopropane-1-carboxamido)-N-(2,4-difluoro-3-(3-(methylthio)propanamido)phenyl)benzamide], the pest or weed control at 50 µg/cm2 [1] is reported as 50 to 100%, the pest or weed control at 50 µg/cm2 [2] is reported as 50 to 100% and the “YFM (rating)” value [3] is reported as “A (80-100)”.
In the case of `CSCCCC(=O)Nc1c(F)ccc(NC(=O)c2cc(NC(=O)[C@H]3[C@H](c4ccc(F)c(C(F)(F)F)c4)C3(Cl)Cl)ccc2Cl)c1F` [F25, 2-Chloro-5-((1R,3R)-2,2-dichloro-3-(4-fluoro-3-(trifluoromethyl)phenyl)cyclopropane-1-carboxamido)-N-(2,4-difluoro-3-(4-(methylthio)butanamido)phenyl)benzamide], the pest or weed control at 50 µg/cm2 [1] is reported as 50 to 100%, the pest or weed control at 50 µg/cm2 [2] is reported as 50 to 100% and the “YFM (rating)” value [3] is reported as “A (80-100)”.
For `O=C(C[S+]([O-])CC(F)(F)F)Nc1c(F)ccc(NC(=O)c2cc(NC(=O)[C@H]3[C@H](c4ccc(F)c(C(F)(F)F)c4)C3(Cl)Cl)ccc2Cl)c1F` (stereo partly drawn) [F32, 2-Chloro-5-((1R,3R)-2,2-dichloro-3-(4-fluoro-3-(trifluoromethyl)phenyl)cyclopropane-1-carboxamido)-N-(2,4-difluoro-3-(2-((2,2,2-trifluoroethyl)sulfinyl)acetamido)phenyl)benzamide], the pest or weed control at 50 µg/cm2 [1] was 50 to 100%, the pest or weed control at 50 µg/cm2 [2] was 50 to 100% and the “YFM (rating)” value [3] was “A (80-100)”.
In the case of `O=C(CCS(=O)(=O)C(F)(F)F)Nc1c(F)ccc(NC(=O)c2cc(NC(=O)[C@H]3[C@H](c4ccc(F)c(C(F)(F)F)c4)C3(Cl)Cl)ccc2Cl)c1F` [F46, 2-Chloro-5-((1R,3R)-2,2-dichloro-3-(4-fluoro-3-(trifluoromethyl)phenyl)cyclopropane-1-carboxamido)-N-(2,4-difluoro-3-(3-((trifluoromethyl)sulfonyl)propanamido)phenyl)benzamide], the pest or weed control at 50 µg/cm2 [1] is reported as 50 to 100%, the pest or weed control at 50 µg/cm2 [2] is reported as 50 to 100% and the “YFM (rating)” value [3] is reported as “A (80-100)”.
